Common to all, as to type: cell-based
In data set [1] the test system is P. falciparum strain 3D7. Description: In vitro potency against P. falciparum strain 3D7 (SYBR green/DAPI). Particulars: Plasmodium falciparum.
Data set [2] has as its system Plasmodium falciparum strain Dd2. As to the kind of experiment: In vitro potency against P. falciparum strain Dd2. The settings on record: read-out: Potency (IC50; nM) Plasmodium spp. Pf Dd2.
Data set [3] is described as follows: Mammalian cytotoxicity, dermal fibroblast. The settings on record: human, normal human dermal fibroblasts (Clonetics #CC-2509); read-out: Selectivity, Mammalian cytotoxicity (IC50; μM) Dermal Fibroblast.
A short description of data set [4]: Mammalian cytotoxicity, kidney epithelial. Particulars: normal human renal proximal tubule cells; read-out: Selectivity, Mammalian cytotoxicity (IC50; μM) Kidney epithelial.
Data set [5] can be described thus: Erythrocyte lysis. The settings on record: erythrocytes, read-out: Selectivity, Mammalian cytotoxicity (IC50; μM) Eryth. Lysis.
[6] abbreviates: read-out: Potency (IC50; nM) Plasmodium spp. Pf 3D7.
[7] abbreviates: reductions in parasitemia, read-out: IC50 values.

Read-outs that look alike come from different tables or passages of the source.

On to `NC1=Nc2ccc(Cl)cc2C1(O)c1cccc2ccccc12` (centres unmarked) [Compound 11], for which the IC50 – broadly, the concentration that gives 50% inhibition – in data set [1] (setting [6]) is 30 nM; in data set [1] (setting [7]), 1 to 100 nM; in data set [2], 37 nM; in data set [3], 24 µM; in data set [4], 24 µM; in data set [5], more than 129 µM.

In the case of `NC1=Nc2ccc(Cl)cc2C1(O)Cc1ccccc1` (centres unmarked) [Compound 38], the IC50 was 38 nM in data set [1] (setting [6]); 1 to 100 nM in data set [1] (setting [7]); 110 nM in data set [2]; more than 62.5 µM in data set [3]; more than 62.5 µM in data set [4]; more than 147 µM in data set [5].

As to `Cn1ncc2cc(Cl)cc(C3(O)C(N)=Nc4ccc(Cl)cc43)c21` (centres unmarked) [Compound 258], the half-inhibitory concentration (IC50) in data set [1] (setting [7]) is 1 to 100 nM.

On to `CCOc1cc(Cl)ccc1C1(O)C(N)=Nc2ccc(Cl)cc21` (centres unmarked) [Compound 259], for which the IC50 in data set [1] (setting [7]) was in the range of 1 to 100 nM.

Regarding `CCOc1ccc(C2(O)C(N)=Nc3ccc(Cl)cc32)c(Cl)c1` (centres unmarked) [Compound 260], the IC50 in data set [1] (setting [7]) was in the range of 100 to 500 nM.

`Cc1ccc2c(c1)C(O)(c1cc(Cl)ccc1OC(C)(C)C)C(N)=N2` (centres unmarked) [Compound 261]: the IC50 in data set [1] (setting [7]) fell in the range of 1 to 100 nM.

Regarding `Cc1ccc2c(c1)C(O)(c1cc(Cl)ccc1C1CC1)C(N)=N2` (centres unmarked) [Compound 262], the half-maximal inhibitory concentration (IC50) in data set [1] (setting [7]) fell in the range of 1 to 100 nM.

As to `COc1cc(C2(O)C(N)=Nc3ccc(Cl)cc32)c2ccccc2n1` (centres unmarked) [Compound 263], the IC50 in data set [1] (setting [7]) was 1 to 100 nM.

With `NC1=Nc2ccccc2C1(O)c1cc(F)cc2ccccc12` (centres unmarked) [Compound 264], in data set [1] (setting [7]), the IC50 fell in the range of 100 to 500 nM.

As to `CCOc1cc(F)c(Cl)cc1C1(O)C(N)=Nc2ccc(C)cc21` (centres unmarked) [Compound 265], the IC50 in data set [1] (setting [7]) fell in the range of 1 to 100 nM.

Consider `Cc1ccc2c(c1)C(O)(c1cc(F)cc3ccccc13)C(N)=N2` (centres unmarked) [Compound 268], for which the IC50 in data set [1] (setting [7]) was in the range of 1 to 100 nM.

Regarding `COc1ccc2c(c1)C(O)(c1cc(F)cc3ccccc13)C(N)=N2` (centres unmarked) [Compound 269], the IC50 in data set [1] (setting [7]) was in the range of 1 to 100 nM.

As for `Cc1ccc2c(c1)C(O)(c1cc(Cl)cnc1N(C)C)C(N)=N2` (centres unmarked) [Compound 270], the IC50 in data set [1] (setting [7]) lay in the range of 1 to 100 nM.

For the compound `COc1cc(C2(O)C(N)=Nc3ccc(Cl)cc32)c2c(cnn2C)c1` (centres unmarked) [Compound 271], in data set [1] (setting [7]), the IC50 was 100 to 500 nM.

For the compound `Cn1ccc2cc(F)cc(C3(O)C(N)=Nc4ccc(Cl)cc43)c21` (centres unmarked) [Compound 272], in data set [1] (setting [7]), the IC50 is 100 to 500 nM.

As to `Cc1ccc2c(c1)C(O)(c1cc(Cl)cc3ccccc13)C(N)=N2` (centres unmarked) [Compound 273], the IC50 in data set [1] (setting [7]) fell in the range of 1 to 100 nM.
